Laboratory results: article PMC9404989, “Design and Evaluation of Short Bovine Lactoferrin-Derived Antimicrobial Peptides against Multidrug-Resistant Enterococcus faecium” (Antibiotics, 2022)
Where “and” joins values, the source holds several entries; their conditions need not be identical. Identical values can stand only once. No end group written: not given here.

Assays:
HepG2 cells = assay: Mammalian cell cytotoxicity assay (WST-1); type: cell-based, human; conditions: 24 h, WST-1, triplicates
Protocol: We used liver-derived HepG2 cells to evaluate AMP cytotoxicity behavior in mammalian cells based on an established protocol. We maintained the HepG2 cells at 37 °C in 5% CO2 in Dulbecco’s Modified Eagle Medium (DMEM) (Gibco, Waltham, MA, USA) supplemented with 10% fetal bovine serum (FBS) (Gibco, Gaithersburg, MD, USA) and 1% penicillin/streptomycin (Gibco, Gaithersburg, MD, USA). Next, we harvested and resuspended the cells in a fresh medium and distributed 50 µL ([…]) in a 96-well plate containing 50 µL of serially diluted AMPs in serum and antibiotic-free DMEM and incubated the plates at 37 °C in 5% CO2 for 24 h. Before the end of the incubation period (at the 20th hour), we added 10 µL of 2-(4-iodophenyl)-3-(4-nitrophenyl)-5-(2,4-disulfophenyl)-2H-tetrazolium (WST-1) (Roche, Mannheim, Germany) to each well and monitored the reduction of WST-1 at 450 nm using a SpectraMax i3x (Molecular Devices, San Jose, CA, USA). We performed the assays in triplicates and calculated the percentage of cell survival.

[1] = system: E. faecium C68 biofilm formation; assay: Prevention of E. faecium biofilm formation (XTT, crystal violet); type: cell-based, Enterococcus faecium; conditions: for biomass depleted / biofilm formation inhibited: at 32 µg/mL, biofilm formation stage
Protocol: We evaluated the ability of the lactoferrin-derived peptides to inhibit biofilm formation following an established protocol with modifications. In short, we prepared exponential cultures of E. faecium C68 (adjusted to OD600 = 0.01) in BHI media (supplemented with 0.2% glucose) from overnight grown cultures. We added 90 µL of the bacterial culture to 10 µL of serially diluted 10× peptide solution in flat-bottomed 96-well polystyrene microtiter plates (Cat No. 3595, Corning, NY, USA) and then incubated the plates at 37 °C for 24 h. We considered media containing bacteria and water as the positive control, while media with water served as the negative control. After incubation, we carefully pipetted out the media and washed the wells with PBS (Gibco, Waltham, MA, USA) to remove loosely attached planktonic cells. We quantified the biomass by staining the biofilms with crystal violet following an established protocol and quantitated the concentration of peptide that inhibits 50% of biofilm formation (MBIC50). Furthermore, we measured the live cell count of the biofilms using XTT [2,3-bis(2-methyloxy-4-nitro-5-sulfophenyl)-2H-tertazolium-5-carboxanilide] dye (ATCC, Manassas, VA, USA). We calculated the percentage of biofilm growth by assuming that there was 100% biofilm growth in wells with bacteria without peptide treatment.

S. aureus MW2 = assay: microbe, parasite or virus in culture; type: cell-based, Staphylococcus aureus; conditions: MW2, 18 h
Protocol: (§1) To determine the MICs of peptides, we used the broth microdilution method described by the Clinical and Laboratory Standards Institute. We made serial dilutions of 10× concentration (10 µL) for each peptide in duplicates in 96-well plates (Cat No. 3595, Corning, New York, NY, USA). We added 90 µL of logarithmic-phase bacteria at 5 × 10^5 CFU/mL (in BHI media) to the peptides and then incubated the plates at 37 °C for 18 h. We measured the OD600 absorbance readings using the Spectra Max i3x spectrophotometer (Molecular Devices, San Jose, CA, USA) and determined the MIC as the peptide concentration that inhibits the growth of bacteria.

E. faecalis V583 = assay: microbe, parasite or virus in culture; type: cell-based; conditions: V583, 18 h
Protocol: as §1

E. faecalis MMH594 = assay: microbe, parasite or virus in culture; type: cell-based; conditions: MMH594, 18 h
Protocol: as §1

[2] = system: E. faecium strain C68 persister cells; assay: Persister cell time-kill assay; type: cell-based, Enterococcus faecium
Protocol: For the generation of antibiotic-induced persister cells, we followed an established protocol. In brief, 25 mL of E. faecium strain C68 culture was grown to the stationary phase and then treated with gentamicin at 400 μg/mL for 5 h. We then disposed of the antibiotic-containing media and regrew the bacteria for another 18 h in fresh media. To produce stable persister cells, we repeated the cycle of antibiotic exposure and regrowth five times. The bacteria culture was then washed with the same volume of phosphate-buffered saline (PBS) 3× times and adjusted to 1 × 10^7 CFU/mL in PBS. For killing kinetics of the persister cells, we added 1 mL of the cell suspension to the wells of a 2 mL deep well assay block (Cat No. 3960, Corning, NY, USA) containing 10× MICs of 5L and 6L and incubated them at 37 °C, with shaking at 225 rpm. At specific times (0, 15, 30, 60, and 120 min), we collected 20 μL samples, diluted them serially, and then plated them on tryptic soy agar (TSA) (BD Difco, Franklin Lakes, NJ, USA) plates for 18 h at 37 °C for colony counting. We performed the experiments in duplicate. As a comparison, we prepared the exponential cells of E. faecium strain C68 in PBS and analyzed their killing kinetics in the same manner as described for persister cells.

[3] = system: E. faecium E007 established biofilms; type: cell-based, Enterococcus faecium; conditions: for concentration killing 50% of live bacteria cells in established biofilms: strain E007, 24 h established biofilms, XTT; for established biomass disrupted: strain E007, at 32 µg/mL; for MBEC50: strain E007, biomass by CV
E. faecium strain C68 = assay: ATP release assay (luciferase); type: cell-based, Enterococcus faecium; conditions: 32 µg/mL, 37 °C, 30 min
Protocol: To determine the ATP leakage potential of the peptides, we employed a luciferase-based assay detailed in [32]. In brief, we washed the exponential phase of E. faecium strain C68 bacteria three times with PBS (pH 7.4) and adjusted it to OD600 = 0.4 in PBS. Following treatment of the bacteria with 32 µg/mL of 5L and 6L peptides at 37 °C for 30 min, we centrifuged the cells at 14,000 rpm for 5 min. We transferred 50 µL of the supernatant of each sample to each well of black, clear-bottom, 96-well plates (Cat No. 3904, Corning, New York, NY, USA) containing 50 µL of BacTiter-Glo reagent (Promega, Madison, WI, USA) and measured plate luminescence after 5 min of incubation at room temperature in the dark with a SpectraMax i3x reader (Molecular Devices, San Jose, CA, USA).

Substance	concentration without cell death in HepG2 cells (HepG2 cells) [µg/mL]	biomass depleted / biofilm formation inhibited [1]	MIC S. aureus MW2 (S. aureus MW2) [µg/mL]	MIC E. faecalis V583 (E. faecalis V583) [µg/mL]	MIC E. faecalis MMH594 (E. faecalis MMH594) [µg/mL]	reduction of viable persister cells ([2]; 10× MIC (40 µg/mL), 1 × 10^7 CFU, PBS, within 120 min) [logs]	concentration killing 50% of live bacteria cells in established biofilms [3] [µg/mL]	established biomass disrupted [3] [%]	MBEC50 [3] [µg/mL]	ATP leakage (luminescence) (E. faecium strain C68)	concentration killing 50% of live bacterial cells during biofilm formation stage ([1]; XTT, 24 h, BHI + 0.2% glucose) [µg/mL]	time to eliminate all persister cells ([2]; 40 µg/mL, 1 × 10^7 persister cells) [min]
RRWLWLRRWLWR-NH2 [Peptide 5L]	≥ 128	90%	> 32	> 32	> 32	3	8	75	10	increased luminescence levels	–	–
RRWLWRLRWLWR-NH2 [Peptide 6L]	≥ 128	90% and 92%	32	> 32	> 32	–	8	75	8	increased luminescence levels	1.2	≤ 60
